# In patent US20240336608A1, “IL4I1 INHIBITORS AND METHODS OF USE” (Merck Sharp & Dohme LLC, priority 2023, published 2024):
# Biological target: T1, recombinant IL4I1 (Homo sapiens, UniProt Q96RQ9)
# T1 construct: purchased R&D Systems 5684-AO-020
# T1 sequence (Q96RQ9 22-567): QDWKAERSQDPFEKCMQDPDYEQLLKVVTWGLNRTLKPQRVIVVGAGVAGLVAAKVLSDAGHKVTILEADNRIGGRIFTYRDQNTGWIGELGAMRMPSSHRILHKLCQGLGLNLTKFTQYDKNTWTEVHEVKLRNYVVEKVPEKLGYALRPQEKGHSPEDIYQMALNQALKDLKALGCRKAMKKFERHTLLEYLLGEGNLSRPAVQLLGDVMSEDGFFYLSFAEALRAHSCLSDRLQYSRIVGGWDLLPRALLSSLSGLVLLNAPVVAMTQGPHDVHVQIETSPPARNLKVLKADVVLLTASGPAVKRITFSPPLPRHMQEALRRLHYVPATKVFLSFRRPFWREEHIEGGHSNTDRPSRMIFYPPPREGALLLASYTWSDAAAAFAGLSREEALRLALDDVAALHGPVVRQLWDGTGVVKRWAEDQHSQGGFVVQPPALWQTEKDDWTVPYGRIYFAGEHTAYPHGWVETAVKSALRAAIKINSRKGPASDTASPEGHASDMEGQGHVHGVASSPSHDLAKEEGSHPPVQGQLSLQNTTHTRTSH
# Assay: IL4I1 Enzymatic Assay (Amplex Red/HRP coupled detection of H2O2, fluorescence)
# Assay type: biochemical
# Conditions: 1 nM recombinant IL4I1; four-hour pre-incubation with compound; 1 mM each Phe, Tyr, Trp; ten-point titration
# Outline: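 Recombinant IL4I1 (1 nM final) pre-incubated 4 h at ambient temperature with compound (0.5% DMSO) in 50 mM Hepes pH 7.0, 0.005% Tween20; reaction started with 1 mM each Phe/Tyr/Trp plus excess Amplex Red/HRP, run 120 min. H2O2 read as resorufin fluorescence; EC50 from 10-point four-parameter fit.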
row,Structure (SMILES),EC50 [nM]
1,"CC(NC(=O)c1cn(CC(F)F)nn1)c1ccc(-c2ccccc2)nn1 (single isomer, unassigned) [Example 349, 1-(2,2-difluoroethyl)-N-(1-(6-phenylpyridazin-3-yl)ethyl)-1H-1,2,3-triazole-4-carboxamide]",14
2,"O=C(NCc1nnc(-c2ccccc2)s1)c1n[nH]c(C2CC2)c1F [Example 31, 5-cyclopropyl-4-fluoro-N-[(5-phenyl-1,3,4-thiadiazol-2-yl)methyl]-1H-pyrazole-3-carboxamide]",42
3,"O=C(NCc1nnc(-c2ccccc2)s1)c1cn(CC(O)C(F)F)nn1 (single isomer, unassigned) [Example 138, 1-(3,3-difluoro-2-hydroxypropyl)-N-((5-phenyl-1,3,4-thiadiazol-2-yl)methyl)-1H-1,2,3-triazole-4-carboxamide]",25
4,"Cn1cc(C(=O)NCc2cc(-c3ccccc3)no2)nn1 [Example 218, 1-methyl-N-[(3-phenyl-1,2-oxazol-5-yl)methyl]-1H-1,2,3-triazole-4-carboxamide]",184
5,"CCCc1cc(C(=O)NCc2nnc(-c3ccccc3)s2)no1 [Example 39, N-[(5-phenyl-1,3,4-thiadiazol-2-yl)methyl]-5-propyl-isoxazole-3-carboxamide]",3
6,"O=C(NCc1nnc(-c2ccccc2)s1)c1cc(C(F)(F)F)no1 [Example 214, N-[(5-phenyl-1,3,4-thiadiazol-2-yl)methyl]-3-(trifluoromethyl)-1,2-oxazole-5-carboxamide]",251
7,"Cc1ccc(-n2cc(C(=O)NC(C)c3nnc(-c4ccccc4)s3)nn2)c(C)n1 (single isomer, unassigned) [Example 263, 1-(2,6-dimethylpyridin-3-yl)-N-(1-(5-phenyl-1,3,4-thiadiazol-2-yl)ethyl)-1H-1,2,3-triazole-4-carboxamide]",33
8,"Cc1cccn2cc(C(=O)NCc3nnc(-c4ccccc4)s3)nc12 [Example 13, 8-methyl-N-((5-phenyl-1,3,4-thiadiazol-2-yl)methyl)imidazo[1,2-a]pyridine-2-carboxamide]",341
9,"C[C@H](CO)n1cc(C(=O)NCc2nnc(-c3ccccc3)s2)nn1 [Example 303, (R)-1-(1-hydroxypropan-2-yl)-N-((5-phenyl-1,3,4-thiadiazol-2-yl)methyl)-1H-1,2,3-triazole-4-carboxamide]",6
10,"Cc1csc(C(=O)NCc2nnc(-c3ccccc3)s2)c1 [Example 10, 4-methyl-N-[(5-phenyl-1,3,4-thiadiazol-2-yl)methyl]thiophene-2-carboxamide]",10
11,"CC1(n2cc(C(=O)NCc3nnc(-c4ccccc4)s3)nn2)CC(F)(F)C1 [Example 208, 1-(3,3-difluoro-1-methylcyclobutyl)-N-((5-phenyl-1,3,4-thiadiazol-2-yl)methyl)-1H-1,2,3-triazole-4-carboxamide]",711
12,"CC(C)(O)c1cc(C(=O)NCc2cc(-c3ccccc3)on2)on1 [Example 248, 3-(2-hydroxypropan-2-yl)-N-((5-phenylisoxazol-3-yl)methyl)isoxazole-5-carboxamide]",303
13,"O=C1COC(Cn2cc(C(=O)NCc3nnc(-c4ccccc4)s3)nn2)CN1 (stereo not drawn) [Example 192, 1-((5-oxomorpholin-2-yl)methyl)-N-((5-phenyl-1,3,4-thiadiazol-2-yl)methyl)-1H-1,2,3-triazole-4-carboxamide]",264
14,"CCC(CC)Cn1cc(C(=O)NCc2nnc(-c3ccccc3)s2)nn1 [Example 82, 1-(2-ethylbutyl)-N-((5-phenyl-1,3,4-thiadiazol-2-yl)methyl)-1H-1,2,3-triazole-4-carboxamide]",282
15,"O=C(NCc1nnc(-c2ccccc2)s1)c1cn(CCCO)nn1 [Example 194, 1-(3-hydroxypropyl)-N-((5-phenyl-1,3,4-thiadiazol-2-yl)methyl)-1H-1,2,3-triazole-4-carboxamide]",7
16,"CC1CC1n1cc(C(=O)NCc2nnc(-c3ccccc3)s2)nn1 (single isomer, unassigned) [Example 133, Cis-1-(2-methylcyclopropyl)-N-((5-phenyl-1,3,4-thiadiazol-2-yl)methyl)-1H-1,2,3-triazole-4-carboxamide]",92
17,"Cc1ccc(-n2cc(C(=O)NCc3nnc(-c4ccc(Cl)cc4)s3)nn2)c(C)n1 [Example 113, N-((5-(4-chlorophenyl)-1,3,4-thiadiazol-2-yl)methyl)-1-(2,6-dimethylpyridin-3-yl)-1H-1,2,3-triazole-4-carboxamide]",838
18,"COCC[C@H](C)n1cc(C(=O)NCc2nnc(-c3ccccc3)s2)nn1 [Example 66, (S)-1-(4-methoxybutan-2-yl)-N-((5-phenyl-1,3,4-thiadiazol-2-yl)methyl)-1H-1,2,3-triazole-4-carboxamide]",221
19,"Cc1ccc(-n2cc(C(=O)NCc3nnc(-c4ccc(F)cc4F)s3)nn2)c(C)n1 [Example 105, N-((5-(2,4-difluorophenyl)-1,3,4-thiadiazol-2-yl)methyl)-1-(2,6-dimethylpyridin-3-yl)-1H-1,2,3-triazole-4-carboxamide]",909
20,"Cc1ccc(-n2cc(C(=O)NCc3nnc(-c4ccccc4)s3)nn2)c(N)n1 [Example 340, 1-(2-amino-6-methylpyridin-3-yl)-N-((5-phenyl-1,3,4-thiadiazol-2-yl)methyl)-1H-1,2,3-triazole-4-carboxamide]",36
21,"COC(=O)C(C)(C)n1cc(C(=O)NCc2nnc(-c3ccccc3)s2)nn1 [Example 255, methyl 2-methyl-2-(4-(((5-phenyl-1,3,4-thiadiazol-2-yl)methyl)carbamoyl)-1H-1,2,3-triazol-1-yl)propanoate]",45
22,"CC(C#N)n1cc(C(=O)NCc2cc(-c3ccncc3)no2)nn1 (single isomer, unassigned) [Example 286, 1-(1-cyanoethyl)-N-((3-(pyridin-4-yl)isoxazol-5-yl)methyl)-1H-1,2,3-triazole-4-carboxamide]",72
23,"O=C(NCc1nnc(-c2ccccc2)s1)c1cn(C2C[C@@H]2C(F)F)nn1 (single isomer, unassigned) [Example 144, Trans-1-(-2-(difluoromethyl)cyclopropyl]-N-[(5-phenyl-1,3,4-thiadiazol-2-yl)methyl]-1H-1,2,3-triazole-4-carboxamide]",383
24,"O=C(NCc1nnc(-c2ccccc2)s1)c1cn(CC2(O)CC2)nn1 [Example 136, 1-((1-hydroxycyclopropyl)methyl)-N-((5-phenyl-1,3,4-thiadiazol-2-yl)methyl)-1H-1,2,3-triazole-4-carboxamide]",29
25,"Cc1ccc(-n2cc(C(=O)NCc3cc(-c4ccncc4)no3)nn2)c(C)n1 [Example 314, 1-(2,6-dimethylpyridin-3-yl)-N-((3-(pyridin-4-yl)isoxazol-5-yl)methyl)-1H-1,2,3-triazole-4-carboxamide]",12
26,"O=C(NCc1ccc(-c2ccccc2)nn1)c1cn(C2COC2)nn1 [Example 290, 1-(oxetan-3-yl)-N-((6-phenylpyridazin-3-yl)methyl)-1H-1,2,3-triazole-4-carboxamide]",209
27,"O=C(NCc1nnc(-c2ccccc2)s1)c1cn([C@H]2CO[C@H]3[C@@H]2OC[C@H]3O)nn1 [Example 5, 1-[(3S,3aR,6R,6aR)-6-hydroxy-2,3,3a,5,6,6a-hexahydrofuro[3,2-b]furan-3-yl]-N-[(5-phenyl-1,3,4-thiadiazol-2-yl)methyl]triazole-4-carboxamide]",164
